According to patent US10526388B2, “Peptide derived from GPC3, pharmaceutical composition for treatment or prevention of cancer using the same, immunity inducer, and method for producing antigen-presenting cells” (CYTLIMIC INC., priority 2015, dated 2020):
Ends that are not written are not given here.

Assays:
[1] = target: HLA-A*02:01 molecule (Homo sapiens, UniProt P04439, D140Y/D185E/D98H/E176V/E277Q/G131W/G231S/I119V/I121R/I166T/I218V/L300P/L318F/N151K/N90K/P208A/P217A/Q86G/Q94H/R138H/R169H/T345S); experiment: Binding experiment of peptide to HLA-A*02:01 molecule (T2 cells, antibody BB7.2, flow cytometer); settings: for Kd: T2 cells, 37° C. 4 hours, negative figures given (log of Kd value)
Protocol: The binding capacity of each peptide to the HLA-A*02:01 molecule as the product of HLA-A*02:01 gene was measured using a cell line, T2, (purchased from ATCC) expressing the HLA-A*02:01 molecule.
T2 cells and purified β2m were added to stepwise dilution series of a peptide whose binding capacity was to be measured, which was then incubated at 37° C. for 4 hours.
(§1) Thereafter, the amount of fluorescence per cell was measured using a flow cytometer, and the dissociation constant, Kd value, was calculated using a method as published in a paper by the present inventor (Udaka et al., Immunogenetics, 51, 816-828, 2000).

[2] = system: CD8T cells; experiment: Immunity induction test of peptide (peptide-stimulated dendritic cells cocultured with CD8T cells, IFN-γ ELISPOT / ELISA); assay type: cell-based, human
Protocol: (1) Preparation of Peptide-stimulated Dendritic Cell
Of peripheral blood monocytes obtained by pheresis from the patient treated with HSP70 dendritic cell therapy, a cell fraction adhering to the culture flask was cultured in AIM-CM medium (trade name “Gibco” from Thermo Fisher Scientific Co., Ltd.) at 37° C. for 10 days. During culture, 15 μl of IL-4 and 30 μl of granulocyte-monocyte colony-stimulating factor (GM-CSF) were added to the medium at day 0 and day 3, and 15 μl of IL-4, 30 μl of GM-CSF, and 75 μl of tumor necrosis factor (TNF)-α were added at day 5.
The dendritic cells induced were newly recovered into AIM-CM medium, and the peptides of the present invention (SEQ ID NOS: 1 to 11) were each added to 20 μg/ml. […]
The dendritic cells were recovered, washed 3 times or more with a sufficient amount of AIM-CM medium, and counted. […]
Using CD8 Negative Selection Kit (from Miltenyi Biotec), CD8T cells were separated from the medium and counted. […]
A culture supernatant at day 7 after coculture of T cells with dendritic cells pulsed with each of the above peptides was diluted to the 4 levels of ×1, ×5, ×25, and ×125 to identify the dilution level falling within the limit of measurement using Human IFN-γ ELISA MAX Deluxe Set (from BioLegend Inc.). Thereafter, each sample was measured 3 times at the identified dilution level. […]

[3] = target: HLA-A*24:02 molecule (Homo sapiens, UniProt P04439, D101N/D140Y/D185E/E176V/E190D/F33S/G103R/G107R/I119L/I121M/I306V/K335N/L105A/L180Q/L300P/N151K/N90K/Q86E/Q94H/R106L/R138H/R89G/T104I/T345S/V100E/W191G/Y123F); experiment: Binding experiment of peptide to HLA-A*24:02 molecule (C1R-A24 cells, antibody 17A12, FACScan); settings: for Kd: C1R-A24 cells, on ice 4 hours, negative figures given (log of Kd value)
Protocol: The binding capacity of each peptide to the HLA-A*24:02 molecule as the product of HLA-A*24:02 gene was measured using C1R-A24 cells expressing the HLA-A*24:02 molecule (the cells prepared by Prof. Masafumi Takeguchi, Kumamoto University were gifted by Assoc. Prof. Masaki Yasukawa, Ehime University with permission).
First, C1R-A24 cells were exposed to acidic conditions of pH 3.3 for 30 seconds to dissociate and remove endogenous peptides which were originally bound to the HLA-A*24:02 molecule and a light chain, […], which was commonly associated with HLA class I molecules. After neutralization, purified β2m was added to the C1R-A24 cells, which was then added to peptide dilution series. The mixtures were each then incubated on ice for 4 hours. The 3-molecule assembly (MHC-pep) consisting of the HLA-A*24:02 molecule, the peptide, and β2 m which had been reasociated during the incubation was stained with a fluorescent labeled monoclonal antibody, 17A12, recognizing the assembly.
Subsequently, the number of MHC-pep's per C1R-A24 cell (which is proportional to the fluorescent intensity of the above fluorescent antibody) was quantitatively measured using a fluorescent cell analyzer, FACScan (Becton, Dickinson and Company). The binding dissociation constant, Kd value, between the HLA-A*24:02 molecule and the peptide was calculated from the average fluorescent intensity per cell using a method as published in a paper (Udaka et al., Immunogenetics, 51, 816-828, 2000) by the present inventor.

[4] = target: T1, HLA-A*02:06 molecule (Homo sapiens, UniProt P04439, D140Y/D185E/D98H/E176V/E277Q/F33Y/G131W/G231S/I119V/I121R/I166T/I218V/L300P/L318F/N151K/N90K/P208A/P217A/Q86G/Q94H/R138H/R169H/T345S); experiment: Binding experiment of peptide to HLA-A*02:06 molecule (RA2.6 cells, antibody BB7.2, flow cytometer); settings: for Kd: RA2.6 cells, 26° C. 60 minutes then 35° C. 4 hours, negative figures given (log of Kd value)
T1 construct: expressed in transfected cells; host or cells: RA2.6 cells (RMAS mouse TAP-deficient line carrying HLA-A*02:06 cDNA; prepared at Kochi University)
Protocol: The binding capacity of each peptide to the HLA-A*02:06 molecule as the product of HLA-A*02:06 gene was measured using RA2.6 cells (a cell line newly prepared at Kochi University) in which cDNA of the HLA-A*02:06 gene was introduced into RMAS as a mouse TAP (transporter associated with antigen processing)-deficient cell line.
First, the RA2.6 cells were cultured overnight at 26° C. to accumulate the HLA-A*02:06 molecules unbound to the peptide on the cell surface. Any of peptide dilution series was added thereto for binding at 26° C. for 60 minutes.
Subsequently, the mixture was cultured at 35° C. for 4 hours, resulting in the denaturation of the empty HLA-A*02:06 molecule unbound to the peptide and the loss of its steric structure. A fluorescent labeled monoclonal antibody, BB7.2, specifically recognizing a peptide-bound HLA-A*02:06 molecule, was added thereto, which was then incubated on ice for 20 minutes to stain the cells.
as §1

Sequence | binding to HLA-A*02:01 molecule (in words) [1] | Kd [1] | immunogenicity (in words) [2] | binding to HLA-A*24:02 molecule (in words) [3] | Kd [3] | binding to HLA-A*02:06 molecule (in words) [4] | Kd [4]
ALNLGIEVI [SEQ ID NO: 7, ALNLGIEVI] | strongly binds | 1.21 µM | high immunogenicity | strongly binds | 111 µM | strongly binds | 69 µM
ARLNMEQLL [SEQ ID NO: 11, ARLNMEQLL] | – | 144 µM | – | – | 6.26 µM | – | 1720 µM
GMIKVKNQL [SEQ ID NO: 10, GMIKVKNQL] | – | 17.5 µM | – | – | 0.125 µM | – | 439 µM
GYICSHSPV [SEQ ID NO: 6, GYICSHSPV] | – | > 1000 µM | – | – | 0.283 µM | – | > 1000 µM
KLTTTIGKL [SEQ ID NO: 9, KLTTTIGKL] | – | 10.7 µM | – | – | 6.14 µM | – | 9.25 µM
LFDSLFPVI [SEQ ID NO: 2, LFDSLFPVI] | – | 8.61 µM | – | – | 0.0374 µM | – | > 1000 µM
LLQSASMEL [SEQ ID NO: 8, LLQSASMEL] | – | 0.73 µM | – | – | 3.25 µM | – | 1.33 µM
MVNELFDSL [SEQ ID NO: 1, MVNELFDSL] | – | 4.94 µM | – | – | 20 µM | – | 0.724 µM
SALDINECL [SEQ ID NO: 3, SALDINECL] | – | > 1000 µM | – | – | > 1000 µM | – | 0.483 µM
SLQVTRIFL [SEQ ID NO: 4, SLQVTRIFL] | – | 0.616 µM | – | – | 4.61 µM | – | 6.11 µM
SLTPQAFEF [SEQ ID NO: 5, SLTPQAFEF] | – | 11.9 µM | – | – | 0.077 µM | – | 30.5 µM
